Assay results taken from patent US20080081788A1, “Diagnosis and treatment for immunoglobulin E (IgE) implicated disorders” (priority 2002, published 2008).
Where two headings read alike, the source gives them in different places. Ends that are not written are not given here.

Experiments:
[1] = format: in vivo, human; conditions: seven days, compared with expt #1 and #2
[2] = test system: IgE; format: in vivo, human; conditions: for IgE levels in saliva: ELISA titer, Normal 16200, Glucotrol 15 mg/day, LT-10 2 mg/day or both
[3] = test system: NGF; format: in vivo, human; conditions: for NGF levels in saliva: ELISA titer, Normal 1200, Glucotrol 15 mg/day, LT-10 2 mg/day or both
[4] = test system: Insulin; format: in vivo, human; design: Insulin levels in saliva: unit not given here; conditions: for Insulin levels in saliva: ELISA titer, Normal 600, Glucotrol 15 mg/day, LT-10 2 mg/day or both
[5] = test system: Myoglobin; format: in vivo, human; conditions: for Myoglobin levels in saliva: ELISA titer, Normal 1800, Glucotrol 15 mg/day, LT-10 2 mg/day or both
[6] = in vivo

In the case of `Cc1cnc(C(=O)NCCc2ccc(S(=O)(=O)NC(=O)NC3CCCCC3)cc2)cn1` [Glucotrol], the “effect on glucose level, in words” value [1] is reported as “did not make appreciable difference”, the “IgE levels in saliva” value ([2]; Day 1) is reported as 145800 and the “IgE levels in saliva” value ([2]; Day 2) is reported as 148600. For the same compound, the “IgE levels in saliva” value ([2]; Day 3) was 145800, the “IgE levels in saliva” value ([2]; Day 4) was 148600 and the “IgE levels in saliva” value ([2]; Day 5) was 148600. The “IgE levels in saliva” value ([2]; Day 6) was 145800, the “IgE levels in saliva” value ([2]; Day 7) was 145800 and the “effect on IgE levels in saliva, in words” value ([2]; treatment for seven days) was “does not contribute in lowering IgE levels”. The “NGF levels in saliva” value ([3]; Day 1) was 2700, the “NGF levels in saliva” value ([3]; Day 2) was 8100 and the “NGF levels in saliva” value ([3]; Day 3) was 5400. The “NGF levels in saliva” value ([3]; Day 4) was 5400, the “NGF levels in saliva” value ([3]; Day 5) was 2700 and the “NGF levels in saliva” value ([3]; Day 6) was 2700. For the same compound, the “NGF levels in saliva” value ([3]; Day 7) was 5400, the “effect on NGF levels in saliva, in words” value ([3]; treatment for seven days) was “perhaps increases NGF levels” and the “Insulin levels in saliva” value ([4]; Day 1) was 1200. For the same compound, the “Insulin levels in saliva” value ([4]; Day 2) was 800, the “Insulin levels in saliva” value ([4]; Day 3) was 800 and the “Insulin levels in saliva” value ([4]; Day 4) was 900. For the same compound, the “Insulin levels in saliva” value ([4]; Day 5) was 750, the “Insulin levels in saliva” value ([4]; Day 6) was 800 and the “Insulin levels in saliva” value ([4]; Day 7) was 900. The “effect on Insulin levels in saliva, in words” value ([4]; treatment for seven days) was “contributes m lowering Insulin levels”, the “Myoglobin levels in saliva” value ([5]; Day 1) was 1800 and the “Myoglobin levels in saliva” value ([5]; Day 2) was 3600. The “Myoglobin levels in saliva” value ([5]; Day 3) was 3600, the “Myoglobin levels in saliva” value ([5]; Day 4) was 2700 and the “Myoglobin levels in saliva” value ([5]; Day 5) was 2700. For the same compound, the “Myoglobin levels in saliva” value ([5]; Day 6) was 2700, the “Myoglobin levels in saliva” value ([5]; Day 7) was 3500 and the “myoglobin level at completion point (FIG. 1)” value ([5]; end of seven days, times the normal level) was “increased the level of myoglobin”. The “effect on myoglobin levels in saliva, in words” value ([5]; treatment for seven days) was “contributes in increasing myoglobin levels”.
With LKAMDPTPPL [LT-10] the side effects [6] was “no observable side effects”.
